Results as given in patent US12303509B2, “Compounds for the treatment of BRAF-associated diseases and disorders” (Pfizer Inc., priority 2020, dated 2025).
Where a name gives a salt, the structure may show the parent alone.

Assays:
H1755 cells = experiment: Cellular phospho-ERK inhibition assay in H1755 cells; format: cell-based; conditions: Homo sapiens, NCI-H1755, 2 hours treatment, read-out: H1755 Cell IC50
Outline: (§1)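 A375 (DMEM) or H1755 (RPMI) cells in 10% FBS treated 2 h at 37 °C with 9-point series, 66 pM–10 μM, 0.25% DMSO. Phospho-ERK1/2 (Thr202/Tyr204) measured by In Cell Western, normalised to GAPDH and to DMSO and 10 μM binimetinib controls; IC50 by 4-parameter fit.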

[1] = biological target: full-length FLAG-tagged B-Raf(V600E) (Homo sapiens (Human), UniProt P15056, V600E); experiment: BRAF V600E enzyme assay (TR-FRET competitive displacement); format: binding; conditions: averaged IC50; TR-FRET tracer displacement, 60 min
Outline: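 Displacement of 50 nM Tracer 1710 from 5 nM full-length N-terminally FLAG-tagged B-Raf(V600E), detected by TR-FRET with 0.5 nM Eu anti-FLAG antibody, in 25 mM HEPES pH 7.4, 10 mM MgCl2, 2% DMSO; 60 min at ~22 °C. Compounds 11-point, 3-fold from 10 μM; IC50 from 4-parameter fit at 50 POC.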

A375 cells = experiment: Cellular phospho-ERK inhibition assay in A375 cells; format: cell-based; conditions: Homo sapiens, A-375, A375 cells (head prints A357), 2 hours treatment, read-out: A357 cell IC50
Outline: as §1

P-gp (MDR1) = P-gp (MDR1) (Homo sapiens (Human), UniProt P08183); experiment: MDR1 LLC-PK1 permeability assay: efflux ratio; format: in vitro ADME; conditions: pig
Text: (§2) Final organic concentration in the assay was 1%.

[2] = MDR1 LLC-PK1 and BCRP MDCKII permeability assay: permeability coefficient (Papp); format: in vitro ADME
Text: as §2

BCRP = BCRP (Homo sapiens (Human), UniProt Q9UNQ0); experiment: BCRP MDCKII permeability assay: efflux ratio; format: in vitro ADME; conditions: dog
Sequence of BCRP (Q9UNQ0 whole entry): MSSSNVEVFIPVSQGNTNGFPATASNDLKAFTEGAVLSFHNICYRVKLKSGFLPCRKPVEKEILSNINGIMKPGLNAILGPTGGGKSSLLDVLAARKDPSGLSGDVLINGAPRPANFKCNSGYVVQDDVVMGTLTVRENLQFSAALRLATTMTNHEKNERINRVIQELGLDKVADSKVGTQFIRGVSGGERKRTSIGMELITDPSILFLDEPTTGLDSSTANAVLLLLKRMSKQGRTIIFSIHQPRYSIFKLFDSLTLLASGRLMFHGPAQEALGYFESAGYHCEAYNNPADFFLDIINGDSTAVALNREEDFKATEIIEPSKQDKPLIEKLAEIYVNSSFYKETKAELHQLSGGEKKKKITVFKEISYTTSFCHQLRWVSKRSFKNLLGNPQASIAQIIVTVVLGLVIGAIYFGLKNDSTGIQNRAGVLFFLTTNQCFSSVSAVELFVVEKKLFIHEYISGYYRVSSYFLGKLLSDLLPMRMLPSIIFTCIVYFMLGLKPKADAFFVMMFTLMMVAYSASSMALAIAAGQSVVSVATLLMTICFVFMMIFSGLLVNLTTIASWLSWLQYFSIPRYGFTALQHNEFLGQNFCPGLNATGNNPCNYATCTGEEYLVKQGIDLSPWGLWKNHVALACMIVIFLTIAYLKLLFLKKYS

Sequence of full-length FLAG-tagged B-Raf(V600E) (P15056 whole entry V600E): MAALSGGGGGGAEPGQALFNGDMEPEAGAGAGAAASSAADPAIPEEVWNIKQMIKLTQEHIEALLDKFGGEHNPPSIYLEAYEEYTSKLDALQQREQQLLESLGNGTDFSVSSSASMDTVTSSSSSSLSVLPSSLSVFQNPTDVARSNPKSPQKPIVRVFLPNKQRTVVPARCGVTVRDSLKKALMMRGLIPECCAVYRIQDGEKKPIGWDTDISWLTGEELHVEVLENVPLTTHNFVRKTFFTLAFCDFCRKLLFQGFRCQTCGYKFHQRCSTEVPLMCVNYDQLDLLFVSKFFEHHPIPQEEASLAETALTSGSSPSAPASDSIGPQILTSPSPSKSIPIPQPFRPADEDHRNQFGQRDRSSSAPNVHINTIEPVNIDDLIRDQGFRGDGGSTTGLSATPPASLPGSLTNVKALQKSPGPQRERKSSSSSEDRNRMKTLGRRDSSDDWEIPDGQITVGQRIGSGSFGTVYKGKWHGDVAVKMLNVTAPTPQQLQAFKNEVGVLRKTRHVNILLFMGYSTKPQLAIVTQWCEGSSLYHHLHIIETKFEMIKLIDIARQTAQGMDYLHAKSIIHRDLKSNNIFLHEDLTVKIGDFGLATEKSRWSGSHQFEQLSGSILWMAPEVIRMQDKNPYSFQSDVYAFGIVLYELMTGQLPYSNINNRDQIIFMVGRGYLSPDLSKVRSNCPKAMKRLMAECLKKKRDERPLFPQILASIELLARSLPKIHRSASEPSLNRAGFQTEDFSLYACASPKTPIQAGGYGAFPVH
Sequence of P-gp (MDR1) (P08183 whole entry, species assumed): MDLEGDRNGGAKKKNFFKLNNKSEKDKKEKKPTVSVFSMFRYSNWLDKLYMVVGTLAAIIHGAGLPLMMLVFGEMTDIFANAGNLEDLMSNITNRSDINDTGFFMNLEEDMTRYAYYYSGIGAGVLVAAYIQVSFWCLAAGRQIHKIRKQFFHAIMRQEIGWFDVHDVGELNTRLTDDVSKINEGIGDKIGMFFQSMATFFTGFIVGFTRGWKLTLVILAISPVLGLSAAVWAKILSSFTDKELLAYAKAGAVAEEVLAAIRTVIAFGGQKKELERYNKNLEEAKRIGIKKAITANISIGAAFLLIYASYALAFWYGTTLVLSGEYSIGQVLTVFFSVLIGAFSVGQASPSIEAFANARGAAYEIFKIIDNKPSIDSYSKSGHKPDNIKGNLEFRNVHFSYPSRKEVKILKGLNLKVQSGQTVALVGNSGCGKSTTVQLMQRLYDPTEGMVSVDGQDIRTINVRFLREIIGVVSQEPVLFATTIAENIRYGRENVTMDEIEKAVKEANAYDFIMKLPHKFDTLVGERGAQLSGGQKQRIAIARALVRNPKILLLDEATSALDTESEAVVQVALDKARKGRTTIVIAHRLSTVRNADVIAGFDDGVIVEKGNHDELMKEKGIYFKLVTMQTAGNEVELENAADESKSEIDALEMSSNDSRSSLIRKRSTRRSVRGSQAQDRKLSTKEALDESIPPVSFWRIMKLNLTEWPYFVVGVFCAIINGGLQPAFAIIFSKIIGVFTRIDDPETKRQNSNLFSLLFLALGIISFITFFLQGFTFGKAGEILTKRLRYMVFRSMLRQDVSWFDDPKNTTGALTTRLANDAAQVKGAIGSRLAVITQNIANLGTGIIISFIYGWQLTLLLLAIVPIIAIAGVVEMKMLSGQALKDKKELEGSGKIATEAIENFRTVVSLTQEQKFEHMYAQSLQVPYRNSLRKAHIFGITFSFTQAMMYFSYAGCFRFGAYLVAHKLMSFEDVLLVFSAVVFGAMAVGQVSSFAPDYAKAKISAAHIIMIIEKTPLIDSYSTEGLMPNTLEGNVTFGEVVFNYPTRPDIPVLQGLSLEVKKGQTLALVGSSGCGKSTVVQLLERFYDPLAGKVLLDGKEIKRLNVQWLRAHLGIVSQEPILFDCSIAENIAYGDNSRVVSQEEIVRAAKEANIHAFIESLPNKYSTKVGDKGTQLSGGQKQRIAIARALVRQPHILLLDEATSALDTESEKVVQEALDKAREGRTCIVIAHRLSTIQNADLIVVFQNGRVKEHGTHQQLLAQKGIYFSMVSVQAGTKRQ

IC50 (H1755 cells) | IC50 [1] | IC50 (A375 cells) | efflux ratio at 2 h, 1 µM (P-gp (MDR1)) | Papp at 2 h, 1 µM [2] | efflux ratio at 2 h, 1 µM (BCRP) | Structure (SMILES)
61 nM | 1 nM | 5 nM | 2.9 | 25 ×10⁻⁶ cm/s | 9.9 | Cn1cnc2ccc(Nc3c(F)c(F)cc(NS(=O)(=O)N4CC[C@@H](F)C4)c3F)c(Cl)c2c1=O [Example 36, (R)-N-(3-((5-chloro-3-methyl-4-oxo-3,4-dihydroquinazolin-6-yl)amino)-2,4,5-trifluorophenyl)-3-fluoropyrrolidine-1-sulfonamide trifluoroacetate]
42 nM | 2 nM | 4 nM | 1.8 | 27 ×10⁻⁶ cm/s | 2.4 | O=c1c2c(F)c(Nc3c(F)ccc(NS(=O)(=O)N4CCCC4)c3Cl)ccc2ncn1CF [Example 42, N-(2-chloro-4-fluoro-3-((5-fluoro-3-(fluoromethyl)-4-oxo-3,4-dihydroquinazolin-6-yl)amino)phenyl)pyrrolidine-1-sulfonamide trifluoroacetate]
45 nM | 1 nM | 4 nM | 1.8 | 32 ×10⁻⁶ cm/s | 1.9 | Cn1cnc2ccc(Nc3c(F)c(F)cc(NS(=O)(=O)N4CCCC4)c3F)c(Cl)c2c1=O [Example 43, N-(3-((5-chloro-3-methyl-4-oxo-3,4-dihydroquinazolin-6-yl)amino)-2,4,5-trifluorophenyl)pyrrolidine-1-sulfonamide trifluoroacetate]
103 nM | 1 nM | 2 nM | 2.8 | 30 ×10⁻⁶ cm/s | 6.3 | Cn1cnc2ccc(Nc3c(F)c(F)cc(NS(=O)(=O)N4CC[C@@H](F)C4)c3Cl)c(F)c2c1=O [Example 46, (R)-N-(2-chloro-4,5-difluoro-3-((5-fluoro-3-methyl-4-oxo-3,4-dihydroquinazolin-6-yl)amino)phenyl)-3-fluoropyrrolidine-1-sulfonamide trifluoroacetate]

The next lines start with the compound.

Structure (SMILES) | IC50 (H1755 cells) | IC50 [1] | IC50 (A375 cells) | efflux ratio at 2 h, 1 µM (P-gp (MDR1)) | Papp at 2 h, 1 µM [2] | efflux ratio at 2 h, 1 µM (BCRP)
Cc1c(Nc2c(F)c(F)cc(NS(=O)(=O)N3CC[C@@H](F)C3)c2Cl)ccc2ncn(C)c(=O)c12 [Example 35, (R)-N-(2-chloro-3-((3,5-dimethyl-4-oxo-3,4-dihydroquinazolin-6-yl)amino)-4,5-difluorophenyl)-3-fluoropyrrolidine-1-sulfonamide] | 163 nM | 2 nM | 21 nM | 1.5 | 31 ×10⁻⁶ cm/s | 2.1
Cn1cnc2ccc(Oc3c(F)ccc(NS(=O)(=O)N4CCCC4)c3Cl)c(Cl)c2c1=O [Example 39, N-(2-chloro-3-((5-chloro-3-methyl-4-oxo-3,4-dihydroquinazolin-6-yl)oxy)-4-fluorophenyl)pyrrolidine-1-sulfonamide] | 55 nM | 3 nM | 8 nM | 1.3 | 23 ×10⁻⁶ cm/s | 0.9
CCN(C)S(=O)(=O)Nc1cc(F)c(F)c(Nc2ccc3ncn(C)c(=O)c3c2F)c1Cl [Example 45, N-(2-chloro-4,5-difluoro-3-((5-fluoro-3-methyl-4-oxo-3,4-dihydroquinazolin-6-yl)phenyl)-(N-ethyl-N-methyl)-sulfamide trifluoroacetate] | 102 nM | 4 nM | 4 nM | 1.6 | 40 ×10⁻⁶ cm/s | 1.6
CO[C@@H]1CCN(S(=O)(=O)Nc2cc(F)c(F)c(Nc3ccc4ncn(C)c(=O)c4c3F)c2Cl)C1 [Example 47, (R)-N-(2-chloro-4,5-difluoro-3-((5-fluoro-3-methyl-4-oxo-3,4-dihydroquinazolin-6-yl)amino)phenyl)-3-methoxypyrrolidine-1-sulfonamide trifluoroacetate] | 23 nM | 2 nM | 2 nM | 3.6 | 26 ×10⁻⁶ cm/s | 2.5
